Measurements from PubChem BioAssay AID2060505 (Molecular Pharmacology Branch, DTP, NCI, 2025).
pIC50: −log10 of the molar value.

Tested on: 633275-114-R-J1-PDC complex spheroids, viability
Test: Anticancer human tumor 633275-114-R-J1-PDC patient-derived endometrial adenocarcinoma cell line growth inhibition [GQUAD]
Conditions: for pIC50: curve of first compound; for viability, T/C: stronger effect = lower value
Method in brief: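 Multi-cell-type spheroids of tumor cells with HUVEC and mesenchymal stem cells, treated with drug combinations. Concentrations descend in half-log steps from near clinical Cmax, or from 10 microM where Cmax is unknown; viability read-out.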

[1] = second compound 0.0316 µM, first compound 0.0316 µM
[2] = second compound 0.0316 µM, first compound 0.1 µM
[3] = second compound 0.0316 µM, first compound 0.316 µM
[4] = second compound 0.0316 µM, first compound 1 µM
[5] = second compound 0.0316 µM, first compound 3.16 µM
[6] = second compound 0.0316 µM, first compound 10 µM
[7] = second compound 0.1 µM, first compound 0.0316 µM
[8] = second compound 0.1 µM, first compound 0.1 µM
[9] = second compound 0.1 µM, first compound 0.316 µM
[10] = second compound 0.1 µM, first compound 1 µM
[11] = second compound 0.1 µM, first compound 3.16 µM
[12] = second compound 0.1 µM, first compound 10 µM
[13] = second compound 0.316 µM, first compound 0.0316 µM
[14] = second compound 0.316 µM, first compound 0.1 µM
[15] = second compound 0.316 µM, first compound 0.316 µM
[16] = second compound 0.316 µM, first compound 1 µM
[17] = second compound 0.316 µM, first compound 3.16 µM
[18] = second compound 0.316 µM, first compound 10 µM
[19] = second compound 1 µM, first compound 0.0316 µM
[20] = second compound 1 µM, first compound 0.1 µM
[21] = second compound 1 µM, first compound 0.316 µM
[22] = second compound 1 µM, first compound 1 µM
[23] = second compound 1 µM, first compound 3.16 µM
[24] = second compound 1 µM, first compound 10 µM
[25] = second compound 3.16 µM, first compound 0.0316 µM
[26] = second compound 3.16 µM, first compound 0.1 µM
[27] = second compound 3.16 µM, first compound 0.316 µM
[28] = second compound 3.16 µM, first compound 1 µM
[29] = second compound 3.16 µM, first compound 3.16 µM
[30] = second compound 3.16 µM, first compound 10 µM
[31] = second compound 10 µM, first compound 0.0316 µM
[32] = second compound 10 µM, first compound 0.1 µM
[33] = second compound 10 µM, first compound 0.316 µM
[34] = second compound 10 µM, first compound 1 µM
[35] = second compound 10 µM, first compound 3.16 µM
[36] = second compound 10 µM, first compound 10 µM
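Note: spheroids exposed to the agents for seven days.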
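Throughout, for viability, T/C: percent of DMSO vehicle control viability which is 100%.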

With `Cc1cccc(N(C)C(=O)C2C(O)CCN2c2nc(C)cc(C(F)(F)F)c2C#N)c1` (stereo not drawn) + CN(C)c1ccc(Nc2c3ccc(NC(=O)CCN4CCCC4)cc3nc3cc(NC(=O)CCN4CCCC4)ccc23)cc1 the pIC50 (second compound 0.0316 µM) was less than 5.00, the pIC50 (second compound 0.1 µM) was less than 5.00 and the pIC50 (second compound 0.316 µM) was less than 5.00. It also gave a pIC50 (second compound 1 µM) of less than 5.00, a pIC50 (second compound 3.16 µM) of 5.07 and a pIC50 (second compound 10 µM) greater than 7.50. It also gave a viability, T/C [1] of 102%, a viability, T/C [2] of 99.2% and a viability, T/C [3] of 105%. It also gave a viability, T/C [4] of 105%, a viability, T/C [5] of 96.3% and a viability, T/C [6] of 104%. The viability, T/C [7] was 107%, the viability, T/C [8] was 103% and the viability, T/C [9] was 104%. It also gave a viability, T/C [10] of 99.5%, a viability, T/C [11] of 101% and a viability, T/C [12] of 97.8%. It also gave a viability, T/C [13] of 99.3%, a viability, T/C [14] of 94.4% and a viability, T/C [15] of 101%. The viability, T/C [16] was 91%, the viability, T/C [17] was 94% and the viability, T/C [18] was 85.3%. For the same molecule, the viability, T/C [19] was 96.2%, the viability, T/C [20] was 96.6% and the viability, T/C [21] was 97.6%. It also gave a viability, T/C [22] of 99.5%, a viability, T/C [23] of 94.6% and a viability, T/C [24] of 87.1%. It also gave a viability, T/C [25] of 88.8%, a viability, T/C [26] of 84.8% and a viability, T/C [27] of 95.5%. For the same molecule, the viability, T/C [28] was 82.4%, the viability, T/C [29] was 69.2% and the viability, T/C [30] was 47%. For the same molecule, the viability, T/C [31] was 30.5%, the viability, T/C [32] was 34.7% and the viability, T/C [33] was 28%. The viability, T/C [34] was 29.6%, the viability, T/C [35] was 28.2% and the viability, T/C [36] was 16.1%.

`COc1cc(C2c3cc4c(cc3C(OC3OC5COC(C)OC5C(O)C3O)C3COC(=O)C23)OCO4)cc(OC)c1O` (stereo not drawn) + CN(C)c1ccc(Nc2c3ccc(NC(=O)CCN4CCCC4)cc3nc3cc(NC(=O)CCN4CCCC4)ccc23)cc1 showed a pIC50 (second compound 0.0316 µM) of 6.53, a pIC50 (second compound 0.1 µM) of 6.55 and a pIC50 (second compound 0.316 µM) of 6.53. For the same molecule, the pIC50 (second compound 1 µM) was 6.48, the pIC50 (second compound 3.16 µM) was 6.77 and the pIC50 (second compound 10 µM) was greater than 7.50. The viability, T/C [1] was 81.6%, the viability, T/C [2] was 64.5% and the viability, T/C [3] was 47.3%. The viability, T/C [4] was 40.9%, the viability, T/C [5] was 33.7% and the viability, T/C [6] was 30.3%. The viability, T/C [7] was 80.2%, the viability, T/C [8] was 64.8% and the viability, T/C [9] was 44.7%. The viability, T/C [10] was 41.4%, the viability, T/C [11] was 32.6% and the viability, T/C [12] was 26.9%. The viability, T/C [13] was 84.3%, the viability, T/C [14] was 69.7% and the viability, T/C [15] was 48.4%. For the same molecule, the viability, T/C [16] was 36.8%, the viability, T/C [17] was 38.4% and the viability, T/C [18] was 29.8%. The viability, T/C [19] was 75.4%, the viability, T/C [20] was 59.5% and the viability, T/C [21] was 52.1%. The viability, T/C [22] was 38.7%, the viability, T/C [23] was 36.7% and the viability, T/C [24] was 26.7%. For the same molecule, the viability, T/C [25] was 71.7%, the viability, T/C [26] was 53.7% and the viability, T/C [27] was 43.6%. The viability, T/C [28] was 36.4%, the viability, T/C [29] was 37.5% and the viability, T/C [30] was 26%. For the same molecule, the viability, T/C [31] was 25.5%, the viability, T/C [32] was 19.9% and the viability, T/C [33] was 18.5%. For the same molecule, the viability, T/C [34] was 17.5%, the viability, T/C [35] was 16.3% and the viability, T/C [36] was 10.7%.

Molecule `CC1COCCN1c1cc(C2(S(C)(=N)=O)CC2)nc(-c2ccnc3[nH]ccc23)n1` (stereo not drawn) + Cc1cnc(CNC(=O)c2c(=O)c3ccc(N4CCCN(C)CC4)nc3n3c2sc2ccccc23)cn1 has a pIC50 (second compound 0.0316 µM) of 5.80, a pIC50 (second compound 0.1 µM) greater than 7.50 and a pIC50 (second compound 0.316 µM) greater than 7.50. The pIC50 (second compound 1 µM) was greater than 7.50, the pIC50 (second compound 3.16 µM) was greater than 7.50 and the pIC50 (second compound 10 µM) was greater than 7.50. The viability, T/C [1] was 67.5%, the viability, T/C [2] was 64.5% and the viability, T/C [3] was 59.1%. It also gave a viability, T/C [4] of 49.6%, a viability, T/C [5] of 50.2% and a viability, T/C [6] of 29.7%. It also gave a viability, T/C [7] of 51.9%, a viability, T/C [8] of 47.3% and a viability, T/C [9] of 49.1%. For the same molecule, the viability, T/C [10] was 41.5%, the viability, T/C [11] was 44.7% and the viability, T/C [12] was 27.4%. The viability, T/C [13] was 47.5%, the viability, T/C [14] was 46% and the viability, T/C [15] was 43.4%. For the same molecule, the viability, T/C [16] was 41.1%, the viability, T/C [17] was 35.7% and the viability, T/C [18] was 24.4%. It also gave a viability, T/C [19] of 37.8%, a viability, T/C [20] of 40.3% and a viability, T/C [21] of 35.7%. It also gave a viability, T/C [22] of 37.8%, a viability, T/C [23] of 39% and a viability, T/C [24] of 27%. It also gave a viability, T/C [25] of 33.5%, a viability, T/C [26] of 34% and a viability, T/C [27] of 32.2%. The viability, T/C [28] was 30.6%, the viability, T/C [29] was 31.1% and the viability, T/C [30] was 22.7%. The viability, T/C [31] was 33.8%, the viability, T/C [32] was 28.8% and the viability, T/C [33] was 31.5%. The viability, T/C [34] was 29.1%, the viability, T/C [35] was 33.6% and the viability, T/C [36] was 23.9%.

`C#Cc1c(F)ccc2cc(O)cc(-c3ncc4c(N5CC6CCC(C5)N6)nc(OCC56CCCN5CC(F)C6)nc4c3F)c12` (stereo not drawn) + Cc1cnc(CNC(=O)c2c(=O)c3ccc(N4CCCN(C)CC4)nc3n3c2sc2ccccc23)cn1 showed a pIC50 (second compound 0.0316 µM) of 5.41, a pIC50 (second compound 0.1 µM) of 6.80 and a pIC50 (second compound 0.316 µM) greater than 7.50. It also gave a pIC50 (second compound 1 µM) greater than 7.50, a pIC50 (second compound 3.16 µM) greater than 7.50 and a pIC50 (second compound 10 µM) greater than 7.50. It also gave a viability, T/C [1] of 68.9%, a viability, T/C [2] of 72.5% and a viability, T/C [3] of 65.2%. The viability, T/C [4] was 58.7%, the viability, T/C [5] was 47.1% and the viability, T/C [6] was 45.6%. It also gave a viability, T/C [7] of 52.3%, a viability, T/C [8] of 49.7% and a viability, T/C [9] of 52.1%. The viability, T/C [10] was 44.7%, the viability, T/C [11] was 39.8% and the viability, T/C [12] was 38.9%. For the same molecule, the viability, T/C [13] was 47.1%, the viability, T/C [14] was 49.8% and the viability, T/C [15] was 43.7%. The viability, T/C [16] was 36.4%, the viability, T/C [17] was 37.2% and the viability, T/C [18] was 26.8%. The viability, T/C [19] was 41.7%, the viability, T/C [20] was 42.1% and the viability, T/C [21] was 42.1%. It also gave a viability, T/C [22] of 36.3%, a viability, T/C [23] of 30.9% and a viability, T/C [24] of 26.8%. For the same molecule, the viability, T/C [25] was 38.4%, the viability, T/C [26] was 36.2% and the viability, T/C [27] was 34.4%. For the same molecule, the viability, T/C [28] was 31.5%, the viability, T/C [29] was 27.7% and the viability, T/C [30] was 24.3%. For the same molecule, the viability, T/C [31] was 31.3%, the viability, T/C [32] was 32.9% and the viability, T/C [33] was 26.5%. The viability, T/C [34] was 27.2%, the viability, T/C [35] was 23.7% and the viability, T/C [36] was 23.1%.
